In patent US20240018472A1, “ENHANCEMENT OF EXTRACELLULAR VESICLE PRODUCTION BY LYSOSOME INHIBITOR” (ExoTop Theragnostics Inc., priority 2022, published 2024):
Entries after “also recorded” stand apart in the source; their conditions may differ.

Legend:
[1] = tested on: CD81; experiment: qPCR of CD81 gene expression in MSCs with or without CQ; format: cell-based; conditions: all media conditions (complete, αMEM, CDPF); CQ 50 μM, 48 hours; listed as CQ
Experimental: (§1) Mesenchymal stem cells (MSC) were cultured in complete media until reaching 70% overall cell confluence, and then were further cultured in three different media with or without chloroquine (CQ) at 50 μM for 48 hours: complete media (normal culture media containing serum), αMEM (minimum essential media), and CDPF (chemically defined protein-free media). The cell-cultured media were collected, filtered through a 0.2 μm filter, and assessed by CD63 ELISA to quantify the amount of CD63, a protein marker associated with small-sized EVs (FIG. 5A).
(§2) To further examine whether the upregulation of CD63 protein is a result of cytosolic secretion or heightened expression at the gene level, an analysis of alterations in the gene expression levels of extracellular vesicle-specific components in both complete and serum-free media was performed. The cultured cells were collected to perform qPCR analysis to detect three well-established EV markers: CD09, CD63, and CD81 (FIGS. 5B, 5C, and 5D).
(§3) One-way ANOVA statistics were performed to analyze the data. In some cases, CD63 is a marker associated with small-sized EVs. In some cases, CD81 is a marker associated with EVs generally. P-value of greater than 0.05 was considered as not having a significant difference. *** indicates p≤0.001.

[2] = tested on: CD09; experiment: qPCR of CD09 gene expression in MSCs with or without CQ; format: cell-based; conditions: all media conditions; CQ 50 μM, 48 hours
Experimental: as §1, §2, §3

[3] = tested on: human MSCs; experiment: Intracellular acidification of MSCs, lysotracker red staining of acidic organelles; format: cell-based; conditions: MSCs cultured in CDPF with lysosome inhibitor vs CCM and CDPF
Experimental: The plate was incubated again.
Human MSCs were cultured in different media including complete culture medium (CCM), CDPF, and CDPF with lysosome inhibitor. The acidic organelles in live stem cells were stained by lysotracker red.

[4] = tested on: Gal-3 (β-galactoside-binding lectin-3); experiment: Protein expression of Gal-3, MSC with or without CQ; format: cell-based; conditions: both αMEM media and CDPF media; CQ 50 μM, 48 hours
Experimental: (§4) Mesenchymal stem cells (MSC) were cultured in complete media until reaching 70% overall cell confluence, and then were further cultured in three different media with or without chloroquine (CQ) at 50 μM for 48 hours: complete media (normal culture media containing serum), αMEM (minimum essential media), and CDPF (chemically defined protein-free media). The cultured cells were analyzed for protein expression of TSG-6 (tumor necrosis factor-inducible gene 6 protein), Gal-3 (β-galactoside-binding lectin-3), and IDO and microRNA expression of miR-21 and miR-222. One-way ANOVA statistics were performed to analyze the data. P-value of greater than 0.05 was considered as not having a significant difference. *** indicates p≤0.001.

[5] = tested on: IDO; experiment: Protein expression of IDO, MSC with or without CQ; format: cell-based; conditions: both αMEM media and CDPF media; CQ 50 μM, 48 hours
Experimental: as §4

[6] = tested on: miR-21; experiment: microRNA expression of miR-21, MSC with or without CQ; format: cell-based; conditions: CQ 50 μM, 48 hours
Experimental: as §4

[7] = tested on: SREBF-1 (sterol regulatory element-binding transcription factor-1); experiment: qPCR of SREBF-1 gene expression in MSCs with or without CQ; format: cell-based; conditions: both serum-free media and complete media, 48-hour culture
Experimental: (§5) Mesenchymal stem cells (MSCs) were subjected to 48-hour culture in either complete media or serum-free media, followed by treatment with or without CQ to investigate alterations in cellular morphology. In addition, the gene expression levels of FASN (fatty acid synthase, a pivotal lipogenic enzyme) and SREBF-1(sterol regulatory element-binding transcription factor-1), two key factors involved in lipid metabolism, were assessed by qPCR.

[8] = tested on: TSG-6 (tumor necrosis factor-inducible gene 6 protein); experiment: Protein expression of TSG-6, MSC with or without CQ; format: cell-based; conditions: regardless of the culture condition; CQ 50 μM, 48 hours
Experimental: as §4

[9] = tested on: CD63; experiment: CD63 ELISA of cell-cultured media, MSC with or without CQ in three media; format: cell-based; conditions: for CD63 levels (ELISA) vs corresponding medium without CQ: CQ 50 μM, 48 hours
Experimental: as §1, §3

[10] = tested on: FASN (fatty acid synthase); experiment: qPCR of FASN gene expression in MSCs with or without CQ; format: cell-based; conditions: both serum-free media and complete media, 48-hour culture
Experimental: as §5

[11] = tested on: CD63; experiment: CD63 ELISA of culture media, secretion of EVs (CD63+ particles) from stem cells; format: cell-based, human
Experimental: (§6) Mesenchymal stem cells were seeded on the plate at a density of ˜5000 cells/cm^2 and the plate was placed in a 5% CO2 humidified incubator. One day after the incubation, the culture media was aspirated to remove non-adherent cells and switched to a fresh media. The plate was incubated again. After further culturing for around 3 to 5 days, the culture media was aspirated and replaced by CDPF and/or lysosome inhibitor medium. The cells were cultured in the CDPF and/or lysosome inhibitor medium for 12, 24, or 48 hours. After the designated period of culturing, the culture media was collected and cell lysis buffer was immediately added to the cells on the plate. The collected media and cell lysate were each independently subjected to detection of the level of CD63 by ELISA and by qPCR, respectively.
(§7) To quantitatively compare CD63+ expression in CM cultured in various media including CCM, CDPF, and CDPF with lysosome inhibitor, enzyme-linked immunosorbent (ELISA) assays were performed.

[12] = tested on: human CD63 (hCD63) gene
Experimental: Mesenchymal stem cells were seeded on the plate at a density of 5000 cells/cm^2 and the plate was placed in a 5% CO2 humidified incubator. One day after the incubation, the culture media was aspirated to remove non-adherent cells and switched to a fresh media. The plate was incubated again. After further culturing for around 3 to 5 days, the culture media was aspirated and replaced by CDPF and/or lysosome inhibitor medium. The cells were cultured in the CDPF and/or lysosome inhibitor medium for 12, 24, or 48 hours. After the designated period of culturing, the culture media was collected and cell lysis buffer was immediately added to the cells on the plate. The collected media and cell lysate were each independently subjected to detection of the level of CD63 by ELISA and by qPCR, respectively.
To compare hCD63+ expression in MSCs cultured in various media including CCM, CDPF, and CDPF with lysosome inhibitor, RT-quantitative real-time PCR (RT-qPCR) assays were performed.

[13] = tested on: Mesenchymal stem cells (MSCs); experiment: Cellular morphology of MSCs after 48-hour culture with or without CQ; format: cell-based; conditions: CQ in serum-free media compared to complete media
Experimental: as §5

[14] = tested on: fatty acid synthase (FASN); experiment: qPCR RQ for fatty acid synthase (FASN) in MSCs in CCM or CDPF with or without lysosome inhibitor; format: cell-based
Experimental: as §6, §7

[15] = tested on: CD63; experiment: qPCR of CD63 gene expression in MSCs with or without CQ; format: cell-based; conditions: CQ 50 μM, 48 hours; for gene expression of CD63 (in words): listed as CQ
Experimental: as §1, §2, §3

[16] = tested on: miR-222; experiment: microRNA expression of miR-222 (miR-22 in the source), MSC with or without CQ; format: cell-based; conditions: CQ 50 μM, 48 hours
Experimental: as §4

[17] = complete media culture condition
[18] = CDPF with lysosome inhibitor vs CDPF, RT-qPCR

expression level of Gal-3 (in words) [4]: increased | gene expression of SREBF-1 (in words) [7]: robust upregulation
SMILES: CCN(CC)CCCC(C)Nc1ccnc2cc(Cl)ccc12 (centres unmarked) [chloroquine]
CD81 gene expression (in words) [1]: did not increase significantly; also recorded: remained similar | CD09 expression (in words) [2]: elevated | intracellular acidification of human MSCs [3]: suppresses | expression level of IDO (in words) [5]: increased | expression of miR-21 (in words) [6, 17]: did not induce an increase | expression of miR-21 (in words) ([6]; serum-free conditions): increased | TSG-6 content levels (in words) [8]: did not stimulate an increase | CD63 levels (ELISA) vs corresponding medium without CQ ([9]; CDPF+CQ): higher | CD63 levels (ELISA) vs corresponding medium without CQ ([9]; complete medium+CQ): higher | increase in EVs (CD63+) quantity resulting from CQ treatment, serum-free vs complete media ([9]; serum-free media (αMEM and CDPF) compared to complete media): larger | CD63 levels (ELISA) vs corresponding medium without CQ ([9]; αMEM+CQ): higher | gene expression of FASN (in words) [10]: robust upregulation | secretion of EVs (CD63+ particles) from stem cells to cultured medium (in words) ([11]; CDPF with lysosome inhibitor vs CCM and CDPF): stimulated | EV productions (CD63 ELISA), fold vs CCM or CDPF without lysosome inhibitor ([11]; CDPF with lysosome inhibitor vs CCM or CDPF): about 2.3 times | expression of hCD63+ gene, fold vs MSCs cultured in CCM ([12]; CDPF with lysosome inhibitor vs CCM, RT-qPCR): about 10 times | expression of hCD63+ gene, fold vs MSCs cultured in CDPF without lysosome inhibitor [12, 18]: about 5 times | CD63 gene expression in MSCs (in words) ([12]; CDPF with lysosome inhibitor, qPCR): dramatic increase; also recorded: increased | cellular morphology [13]: notable thinning of spindle-shaped cells and the emergence of numerous lipid body-like structures | expression of FASN, fold vs CCM ([14]; CCM with lysosome inhibitor vs CCM, RT-qPCR): about 25 times | expression of FASN, fold vs CDPF without lysosome inhibitor [14, 18]: about 5 times | gene expression of FASN (in words) ([14]; treatment with lysosome inhibitor, qPCR RQ): drastically induced | gene expression of CD63, fold vs corresponding medium without CQ ([15]; CDPF+CQ vs CDPF): more than 2.5 times | gene expression of CD63 (in words) ([15]; complete media): no notable changes; also recorded: not seen | gene expression of CD63 (in words) ([15]; serum-free media (αMEM, CDPF), p≤0.001): significant upregulation; also recorded: large increase | gene expression of CD63, fold vs corresponding medium without CQ ([15]; αMEM+CQ vs αMEM): more than 2.5 times | expression of miR-22 (in words) [16, 17]: did not induce an increase | expression of miR-22 (in words) ([16]; serum-free conditions): increased
